Experimental data published in US11203773B2, “Designer ribosomes and methods of use thereof for incorporating non-standard amino acids into polypeptides” (Yale University, priority 2016, dated 2021).
Where two headings read alike, the source gives them in different places.

What was measured:
[1] = molecular target: T1, E. coli GluRS (Escherichia coli, UniProt P04805); experiment: Deacylation assay of [32P]-aminoacyl-tRNA; format: biochemical; parameters: made in house; host or cells: E. coli BL21(DE3); conditions: deacylation of aminoacyl-tRNA, GluRS 5.0 μM, 25° C.
Procedure: (§3) Deacylation assays. Large scale (200 μL) aminoacylation reactions were initiated using the conditions described above (iv). The reactions were allowed to proceed for 1 h at 37° C., after which each reaction mixture was phenol/chloroform extracted. In each case, the aminoacylated tRNA product was ethanol precipitated, and the buffer was exchanged using a micro Bio-Spin 6 column (BioRad) following the procedure specified by the manufacturer and 100 mM HEPES (pH 8.0) containing 100 mM KCl. The precise extent of aminoacylation was calculated using the procedure described above; the 2 μM concentration corresponds to total aminoacylated tRNA. Assays were performed at 25° C. in a 50 μL reaction with 2 μM [^32P]-aminoacyl-tRNA in 100 mM HEPES (pH 7.0) containing 100 mM KCl and 15 mM MgCl2.

[2] = molecular target: T1, E. coli GluRS; experiment: Aminoacylation of 32P-tRNA with α- and β3-amino acids; format: biochemical; parameters: made in house; host or cells: E. coli BL21(DE3)
[3] = molecular target: T1, E. coli GluRS; experiment: Adenylation of α- and β3-amino acids, pyrophosphate exchange assay
Procedure: (§4) Adenylation of α- and β-Amino Acids Catalyzed by E. coli PheRS, GlyRS, MetRS, and GluRS. […] Briefly, assay mixtures (50 μL) assembled at 25° C. contained the requisite α- or β^3-amino acid substrate (between 5 μM and 5 mM) in 100 mM HEPES (pH 7.0) containing 100 mM KCl, 15 mM MgCl2, 2 mM ATP, 0.5 mM NaPPi, and 50 μCi [^32P]-NaPPi). Reactions were initiated upon addition of enzyme (10 nM MetRS, 10 nM PheRS, or 50 nM GlyRS; 100 nM GluRS for reactions with α-Glu or 1.13 μM GluRS for reactions with β^3-Glu), incubated for various times (10 sec to 10 min), and halted by adding a 5 μL reaction aliquot to 100 μL quenching solution (10% charcoal, 0.5% HCl). 50 μL of 200 mM NaPPi in 1.5 N HCl was then added to each quenched reaction to decrease nonspecific binding of pyrophosphate to the charcoal. Each quenched reaction was then filtered through Whatman filter paper (number 3), previously washed with washing solution (200 mM NaPPi in 1 N HCl) using a 96-well BIO-DOT® apparatus (BioRad). Each well of the apparatus was then washed four times with 200 μL aliquots of washing solution (by pipetting washing solution up and down at least 10 times per wash) to minimize nonspecific binding of pyrophosphate to charcoal. Each experimental well was paired with an analogous control well (no-enzyme control) that lacked enzyme; a single membrane contained time points for both α- and β^3-amino acid substrates and all no-enzyme controls. The membrane was allowed to dry and was protected with a sheet of Microseal B adhesive seals (Biorad) prior to exposure to a BAS Storage Phosphor screen. Screens were imaged on a Typhoon 9500FLA biomolecule imager and the signal intensity of each dot was quantified using ImageJ to determine the relative amount of [^32P]-ATP formed as a function of time (Ctime). Each raw value were corrected by subtracting the intensity of the dot corresponding to the appropriate no-enzyme control (Cblank) and the resulting corrected values of Ccorr (representing the relative amounts of ^32P-ATP formed) were plotted as a function of time to determine values of relative ^32P-ATP formed per minute. Those values were divided by the concentration of enzyme used, and the data was plotted as relative specific activity (^32P-ATP formed min^−1×μM^−1 enzyme) and fitted using Prism by performing nonlinear regression using the least squares method and Equation 1 to obtain RSA (relative specific activity) and KM values (Equation 1 and Table 2).
(§5) In Equation 1, v is the apparent relative specific activity (relative ^32P-ATP formed per minute) obtained at each substrate concentration divided by the enzyme concentration, RSA is the relative specific activity, S is the concentration of substrate, and KM is the Michaelis-Menten constant.

[4] = molecular target: T2, E. coli MetRS (Escherichia coli, UniProt P00959); conditions: aminoacylation
Procedure: Aminoacylation of α- and β^3-amino acids. All tRNAs were prepared for aminoacylation by heating ^32P-tRNA (in 100 mM HEPES (pH 7.0)) to 95° C. for 3 min, and adding sufficient aminoacylation buffer (100 mM HEPES (pH 7.0), 100 mM KCl, 15 mM MgCl2) to ensure [^32P-tRNA]=4 μM. This tRNA mixture was allowed to cool at RT for 30 min. […] Equal volumes of the tRNA and amino acid mix were combined, and enzyme was added to initiate the reaction. The final concentration of tRNA after mixing was 2 μM. Reactions were quenched at various time points by mixing 1 μL of the reaction mixture with 4 μL of P1 (Sigma) or S1 (Invitrogen) nuclease solution (0.5 U/μL final prepared from a 10 U/μL stock solution in 10 mM NaOAc (pH 5.0). PEI cellulose TLC plates were run as previously described (Ledoux, et al., Methods, 44:74 (2008)), exposed to a BAS Storage Phosphor Screen, and imaged using a Typhoon FLA9500 biomolecule imager. The intensity of each band was quantified using ImageJ. The sum of the intensities of the bands corresponding to [^32P]-AMP (IAMP) and aminoacyl-[^32P]-AMP (IAA) was set equal to 2 μM, and the concentration of aminoacylated-tRNA at each time point and each enzyme concentration (μM product formed, x) calculated from the equation x=[(IAA×2 μM)/(IAA+IAMP)]. The increase in aminoacyl-^32P-AMP over time was divided by the amount of enzyme used, plotted as a function of substrate concentration and fitted to a hyperbolic equation to obtain kcat and KM values, using Equation 1 and Prism as described for the adenylation reactions. For all aminoacylation reactions, kcat has units of reciprocal time (min^−1).

[5] = molecular target: T2, E. coli MetRS; conditions: deacylation of aminoacyl-tRNA, MetRS 500 nM, 25° C.
Procedure: as §3

[6] = molecular target: T2, E. coli MetRS; conditions: adenylation
Procedure: as §4, §5

[7] = molecular target: T3, E. coli PheRS (Escherichia coli, UniProt P08312); experiment: Aminoacylation of 32P-tRNA with α- and β3-amino acids; format: biochemical; parameters: made in house; host or cells: E. coli BL21(DE3)
[8] = molecular target: T3, E. coli PheRS; experiment: Deacylation assay of [32P]-aminoacyl-tRNA; format: biochemical; parameters: made in house; host or cells: E. coli BL21(DE3); conditions: deacylation of aminoacyl-tRNA, PheRS 500 nM, 25° C.
Procedure: as §3

[9] = molecular target: T3, E. coli PheRS; experiment: Adenylation of α- and β3-amino acids, pyrophosphate exchange assay
Procedure: as §4, §5

[10] = molecular target: T4, E. coli TyrRS (Escherichia coli, UniProt P0AGJ9); experiment: Adenylation of α- and β-Tyr, coupled MESG/PNP pyrophosphate release assay; format: biochemical
T4 construct: made in house; host or cells: E. coli BL21(DE3)
T4 sequence (P0AGJ9 1-424): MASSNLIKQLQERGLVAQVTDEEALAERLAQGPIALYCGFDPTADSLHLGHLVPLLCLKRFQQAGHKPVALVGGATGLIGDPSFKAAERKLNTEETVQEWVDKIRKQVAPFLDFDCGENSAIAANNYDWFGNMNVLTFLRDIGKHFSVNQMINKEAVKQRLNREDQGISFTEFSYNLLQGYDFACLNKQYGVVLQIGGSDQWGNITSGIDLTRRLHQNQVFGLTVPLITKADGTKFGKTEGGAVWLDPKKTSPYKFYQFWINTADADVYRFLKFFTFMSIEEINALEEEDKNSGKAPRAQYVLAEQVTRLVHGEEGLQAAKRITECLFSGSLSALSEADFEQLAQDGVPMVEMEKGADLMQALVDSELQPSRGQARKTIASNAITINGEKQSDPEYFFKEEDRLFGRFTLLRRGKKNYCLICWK
Source text: ii. Adenylation of α- and β-Tyr catalyzed by E. coli TyrRS. These reactions were monitored spectrophotometrically in a coupled assay using inorganic pyrophosphatase, 2-amino-6-mercapto-7-methylpurine ribonucleoside (MESG), and purine nucleoside phosphorylase (PNP) to monitor the rate of pyrophosphate release, according to the manufacturer's instructions (Enzcheck Pyrophosphate assay kit, Thermo Fisher Scientific). The assay measures the increase in absorbance at 360 nm due to MESG phosphorolysis, and two molecules of MESG are consumed per pyrophosphate generated. This direct assay could be employed for TyrRS because the rate of ATP hydrolysis (in the absence of amino acid substrate) was insignificant, which was not the case for the other synthetases which therefore required the more laborious pyrophosphate exchange assay described above. […] For TyrRS, kcat is the turnover number (units of reciprocal time) since the change in absorbance can be directly correlated to concentration of pyrophosphate formed.

[11] = molecular target: T4, E. coli TyrRS; experiment: Deacylation assay of [32P]-aminoacyl-tRNA; format: biochemical; conditions: deacylation of aminoacyl-tRNA, TyrRS 1 μM, 25° C.
Procedure: as §3

[12] = molecular target: T4, E. coli TyrRS; experiment: Aminoacylation of 32P-tRNA with α- and β3-amino acids; format: biochemical
[13] = test system: BL21(DE3) cells expressing 040329 ribosomes along with WT ribosomes; experiment: Expression of DHFR in 19/20 minimal media supplemented with amino acid (SDS-PAGE); format: cell-based, E. coli; conditions: 040329 + WT ribosomes, media supplemented with 1 mM of the amino acid
Source text: (§1) To evaluate the extent of in vivo β^3-amino acid incorporation, BL21 (DE3) cells were co-transformed via electroporation (vide infra) with two plasmids. […] The other plasmid encoded either the WT rrnb sequence (pLK35-rrnb), the 040329 mutant reported by Hecht (pLK35-040329.rrnb), or the P7A7 mutant (pLK35-P7A7.rrnb) identified during the puromycin sensitivity screen described above.
(§2) ii. β^3-amino acid incorporation. The subsequent protocol for in vivo β^3-amino acid incorporation employed minimal media and was adapted from procedures reported by Tirrell and Cropp (Liu, et al., Bioorg Med Chem Lett, 20:5613 (2010); Mandavi, et al., J Am Chem Soc, 135:2979 (2013)). Briefly, all 5 mL of the co-transformed cells prepared as described above were diluted into 100 mL of LB containing 50 ng/mL of kanamycin and […] of carbenicillin and grown to OD600=1.0, spun down, and then resuspended in 1/10th the original volume of 19/20 minimal media (10.5 g/L M9 salts, 0.1 mM CaCl2, 1 mM MgSO4, 1% glycerol, 100 μM of each amino acid (minus α-Phe), 25 mg/L thiamine, […] carbenicillin, 30 ng/mL kanamycin, 1 mM IPTG) supplemented with 1 mM of α-Phe or a β^3-Phe analog. Cells were grown overnight (18 h) at 37° C. while shaking (200 rpm). The cells were harvested by centrifugation (10 min at 4000×g) and resuspended in lysis buffer (50 mM NaH2PO4, 300 mM NaCl, 10 mM imidazole (pH 8.0)). Lysis was performed by sonication (Branson Sonifier 250) with 5 cycles of 20 s on, 20 s off. Lysed cells were then centrifuged for 20 min at 15000×g. The clarified cell lysate was incubated with Ni-NTA resin (Qiagen) for 1 h while gently rotating at 4° C. The Ni-NTA column was washed with lysis buffer prior to eluting proteins with elution buffer (50 mM NaH2PO4, 300 mM NaCl, 300 mM imidazole (pH 8.0)). Elutions were analyzed with SDS-PAGE to prepare material for in-gel trypsin digestions. Controls included side-by-side growths in (1) unsupplemented 19/20 minimal media, which contains only low levels of α-Phe present (negative control); (2). 19/20 minimal media supplemented with 1 mM α-Phe (positive control) and (3) and 19/20 minimal media supplemented with 1 mM β^3-Gly (negative control; β^3-aa that is not a β^3-Phe analog).

[14] = test system: BL21(DE3) cells expressing only WT ribosomes; experiment: as above; format: cell-based, E. coli; conditions: 19/20 minimal media supplemented with 1 mM of the amino acid
Source text: as §1, §2

[15] = test system: BL21(DE3) cells expressing P7A7 ribosomes along with WT ribosomes; experiment: as above; format: cell-based, E. coli; conditions: media supplemented with 1 mM of the amino acid
Source text: as §1, §2

[16] = test system: DHFR position 128 translated in E. coli BL21 (DE3); experiment: Spectral counting (LC-MS/MS of tryptic peptides) of β3-(p-Br)Phe and α-Phe incorporation into DHFR in vivo; format: cell-based; conditions: spectral counting
Source text: as §1
as §2, with “19/20 minimal media supplemented with 1 mM α-Phe (positive control) and (3) and 19/20 minimal media supplemented with 1 mM β^3-Gly (negative control; β^3-aa that is not a β^3-Phe analog).” left out

T1 sequence (P04805 whole entry): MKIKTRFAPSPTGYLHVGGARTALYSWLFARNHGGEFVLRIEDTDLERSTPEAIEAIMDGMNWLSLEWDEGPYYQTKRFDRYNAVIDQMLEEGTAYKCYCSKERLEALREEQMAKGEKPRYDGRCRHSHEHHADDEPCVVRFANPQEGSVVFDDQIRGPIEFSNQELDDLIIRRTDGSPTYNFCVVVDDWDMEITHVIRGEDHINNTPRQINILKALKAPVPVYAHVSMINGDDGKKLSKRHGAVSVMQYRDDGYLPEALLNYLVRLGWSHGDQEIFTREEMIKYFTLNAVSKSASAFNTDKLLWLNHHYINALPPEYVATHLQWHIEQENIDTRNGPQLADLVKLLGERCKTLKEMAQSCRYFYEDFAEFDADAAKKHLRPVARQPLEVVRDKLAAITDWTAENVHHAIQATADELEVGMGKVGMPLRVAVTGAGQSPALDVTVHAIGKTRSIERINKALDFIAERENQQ
T2 sequence (P00959 whole entry): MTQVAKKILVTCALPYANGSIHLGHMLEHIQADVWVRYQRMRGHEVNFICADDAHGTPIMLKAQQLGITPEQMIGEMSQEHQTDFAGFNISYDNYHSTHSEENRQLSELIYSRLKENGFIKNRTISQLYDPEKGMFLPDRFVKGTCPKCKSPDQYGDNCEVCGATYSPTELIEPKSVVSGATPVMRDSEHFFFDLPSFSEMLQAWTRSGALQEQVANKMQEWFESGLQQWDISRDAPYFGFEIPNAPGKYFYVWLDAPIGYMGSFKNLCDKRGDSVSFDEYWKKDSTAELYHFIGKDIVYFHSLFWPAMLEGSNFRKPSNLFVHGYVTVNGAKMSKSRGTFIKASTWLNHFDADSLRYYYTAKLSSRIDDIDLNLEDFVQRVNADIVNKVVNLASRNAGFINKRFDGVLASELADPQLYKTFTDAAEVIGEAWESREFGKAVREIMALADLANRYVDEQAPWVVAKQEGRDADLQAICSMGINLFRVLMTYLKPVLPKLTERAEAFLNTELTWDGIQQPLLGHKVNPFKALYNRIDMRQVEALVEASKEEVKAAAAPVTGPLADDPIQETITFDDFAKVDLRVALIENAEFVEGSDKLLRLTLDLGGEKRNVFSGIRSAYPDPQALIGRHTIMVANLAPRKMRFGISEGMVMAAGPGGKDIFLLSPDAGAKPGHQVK
T3 sequence (P08312 whole entry): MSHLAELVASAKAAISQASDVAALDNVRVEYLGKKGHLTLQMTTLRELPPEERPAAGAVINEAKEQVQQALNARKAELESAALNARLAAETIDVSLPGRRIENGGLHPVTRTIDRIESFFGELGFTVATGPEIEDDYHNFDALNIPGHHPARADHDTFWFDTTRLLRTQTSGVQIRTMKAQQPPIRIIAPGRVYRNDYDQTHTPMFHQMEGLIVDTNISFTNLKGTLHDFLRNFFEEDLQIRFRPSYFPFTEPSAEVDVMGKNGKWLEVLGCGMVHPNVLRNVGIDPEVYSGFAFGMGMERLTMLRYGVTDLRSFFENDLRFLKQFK
T3 sequence (P07395 whole entry partner): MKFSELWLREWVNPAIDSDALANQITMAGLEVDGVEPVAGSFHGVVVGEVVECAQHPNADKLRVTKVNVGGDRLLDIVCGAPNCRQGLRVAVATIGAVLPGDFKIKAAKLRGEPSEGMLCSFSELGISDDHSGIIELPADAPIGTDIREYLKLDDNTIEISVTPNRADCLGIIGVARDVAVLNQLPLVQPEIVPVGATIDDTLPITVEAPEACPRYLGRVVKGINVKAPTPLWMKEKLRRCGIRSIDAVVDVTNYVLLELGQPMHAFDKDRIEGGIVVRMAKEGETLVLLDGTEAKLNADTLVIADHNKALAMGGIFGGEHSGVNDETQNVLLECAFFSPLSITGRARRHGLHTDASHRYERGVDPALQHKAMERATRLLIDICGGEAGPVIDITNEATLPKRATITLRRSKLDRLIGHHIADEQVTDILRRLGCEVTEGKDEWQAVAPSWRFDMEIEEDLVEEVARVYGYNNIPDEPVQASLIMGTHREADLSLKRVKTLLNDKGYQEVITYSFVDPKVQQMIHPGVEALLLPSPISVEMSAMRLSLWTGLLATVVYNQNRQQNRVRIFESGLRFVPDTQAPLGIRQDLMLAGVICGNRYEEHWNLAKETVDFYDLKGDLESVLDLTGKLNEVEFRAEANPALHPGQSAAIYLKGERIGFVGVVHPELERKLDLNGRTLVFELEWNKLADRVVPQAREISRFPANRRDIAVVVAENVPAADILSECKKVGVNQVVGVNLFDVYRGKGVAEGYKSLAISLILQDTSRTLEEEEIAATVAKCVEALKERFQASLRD

**Q.** Which “krev (apparent rate of deacylation)” value [1] does the source give for NC(CCC(=O)O)CC(=O)O (stereo not drawn) [β-Glu, β^3-glutamic acid] here?
**A.** Its value is 0.43 ± 0.15 min⁻¹.

**Q.** What about the Km [2] of the same compound?
**A.** Its Km is 375 ± 271 µM.

**Q.** And the kcat ([2]; 2 μM tRNA)?
**A.** Its kcat is 1.25e-05 ± 1.5e-06 s⁻¹.

**Q.** What about the Km [3] of the same compound?
**A.** The Km was 215 ± 110 µM.

**Q.** And the “kcat (min^−1) or RSA (^32P-ATP formed min^−1 enzyme μM^−1)” value (“kcat (min^−1) or RSA” below) ([3]; RSA, 25° C., pH 7.0)?
**A.** The value was 42.7 ± 5.8 ^32P-ATP formed min^−1 enzyme μM^−1.

**Q.** What does the source list for CSCCC(N)CC(=O)O (stereo not drawn) [β-Met, β^3-methionine]?
**A.** Km [4]: 609 ± 243 µM; kcat ([4]; 2 μM tRNA): 0.0035 ± 0.0005 s⁻¹; krev (apparent rate of deacylation) [5]: 4.0 ± 1.8 min⁻¹; Km [6]: 33.4 ± 22 µM; kcat (min^−1) or RSA (^32P-ATP formed min^−1 enzyme μM^−1) ([6]; RSA, 25° C., pH 7.0): 310 ± 47 ^32P-ATP formed min^−1 enzyme μM^−1

**Q.** How did the Km [7] turn out when NC(CC(=O)O)Cc1ccccc1 (stereo not drawn) [β-Phe, β^3-phenylalanine] was run?
**A.** Its Km is 119 ± 51.5 µM.

**Q.** What about the kcat ([7]; 2 μM tRNA) of the same compound?
**A.** Its kcat is 0.004 ± 0.0005 s⁻¹.

**Q.** And the “krev (apparent rate of deacylation)” value [8]?
**A.** Its value is 0.32 ± 0.03 min⁻¹.

**Q.** What about the Km [9] of the same compound?
**A.** The Km was 300 ± 137 µM.

**Q.** What about the “kcat (min^−1) or RSA” value ([9]; RSA, 25° C., pH 7.0) of the same compound?
**A.** The value was 41.6 ± 6.8 ^32P-ATP formed min^−1 enzyme μM^−1.

**Q.** With NC(CC(=O)O)Cc1ccc(O)cc1 (stereo not drawn) [β-Tyr, β^3-tyrosine] as the compound, how does the Km [10] read?
**A.** The Km was 450 µM.

**Q.** And the “kcat (min^−1) or RSA” value ([10]; kcat (turnover number))?
**A.** The value was 0.027 ± 0.001 min⁻¹.

**Q.** What about the “krev (apparent rate of deacylation)” value [11] of the same compound?
**A.** The value was 1.9 ± 0.6 min⁻¹.

**Q.** And the Km [12]?
**A.** Its Km is 340 ± 80.3 µM.

**Q.** What about the kcat ([12]; 2 μM tRNA) of the same compound?
**A.** The kcat was 0.0208 ± 0.012 s⁻¹.

**Q.** With NC(CC(=O)O)Cc1ccc(Br)cc1 (stereo not drawn) [β^3-(p-Br)Phe] as the compound, how does the “level of DHFR” value [13] read?
**A.** The value was “significant levels”.

**Q.** What about the “amount of DHFR generated” value [14] of the same compound?
**A.** Its value is “trace amounts”.

**Q.** What about the “level of DHFR” value [15] of the same compound?
**A.** The value was “highest levels”.

**Q.** What about the “lower incorporation of β^3-(p-Br)Phe relative to α-Phe” value ([16]; cells expressing 040329 ribosomes) of the same compound?
**A.** The value was 30 fold.

**Q.** What about the “lower incorporation of β^3-(p-Br)Phe relative to α-Phe” value ([16]; cells expressing P7A7 ribosomes) of the same compound?
**A.** The value was 10 fold.
